Laboratory results as given in article PMC9487510, “A Novel Oral GyrB/ParE Dual Binding Inhibitor Effective against Multidrug-Resistant Neisseria gonorrhoeae and Other High-Threat Pathogens” (Antimicrobial Agents and Chemotherapy, 2022).
Converted amounts (≈) assume the structure as drawn.

Tested on: N. gonorrhoeae clinical isolates
Test: MIC, agar dilution (CLSI)
Format: cell-based, Neisseria gonorrhoeae

CN(C)[C@@H]1C(O)=C(C(N)=O)C(=O)[C@@]2(O)C(O)=C3C(=O)c4c(O)cccc4[C@@](C)(O)[C@H]3C[C@@H]12 [Tet, tetracycline]
MIC range (96 clinical isolates): 0.063 to 16 mg/L
MIC50 (Neisseria gonorrhoeae): 1 mg/L (≈ 2.25 µM)
MIC90 (Neisseria gonorrhoeae): 1 mg/L (≈ 2.25 µM)
MIC (Neisseria gonorrhoeae, strain CDC1 (GCREF2012 016)): 2 mg/L (≈ 4.5 µM)
MIC (Neisseria gonorrhoeae, strain CDC2 (GCREF2012 045)): 1 mg/L (≈ 2.25 µM)
MIC (Neisseria gonorrhoeae, strain CDC3 (GCREF2013 013)): 1 mg/L (≈ 2.25 µM)
MIC (Neisseria gonorrhoeae, strain CDC4 (GCREF2013 030)): 0.5 mg/L (≈ 1.13 µM)
MIC (Neisseria gonorrhoeae, strain CDC5 (GCREF2012 001)): 1 mg/L (≈ 2.25 µM)
MIC (Neisseria gonorrhoeae, strain CDC6 (GCREF2012 002)): 1 mg/L (≈ 2.25 µM)
MIC (Neisseria gonorrhoeae, strain CDC8 (GCREF2012 004)): 1 mg/L (≈ 2.25 µM)
MIC (Neisseria gonorrhoeae, strain CDC9 (GCREF2012 005)): 1 mg/L (≈ 2.25 µM)
MIC (Neisseria gonorrhoeae, strain CDC10 (GCREF2012 006)): 1 mg/L (≈ 2.25 µM)
MIC (Neisseria gonorrhoeae, strain CDC11 (GCREF2012 007)): 1 mg/L (≈ 2.25 µM)
MIC (Neisseria gonorrhoeae, strain CDC12 (GCREF2012 008)): 1 mg/L (≈ 2.25 µM)
MIC (Neisseria gonorrhoeae, strain CDC13 (GCREF2012 009)): 1 mg/L (≈ 2.25 µM)
MIC (Neisseria gonorrhoeae, strain CDC14 (GCREF2012 010)): 1 mg/L (≈ 2.25 µM)
MIC (Neisseria gonorrhoeae, strain CDC15 (GCREF2012 011)): 0.5 mg/L (≈ 1.13 µM)
MIC (Neisseria gonorrhoeae, strain CDC16 (GCREF2012 012)): 1 mg/L (≈ 2.25 µM)
MIC (Neisseria gonorrhoeae, strain CDC18 (GCREF2012 014)): 1 mg/L (≈ 2.25 µM)
MIC (Neisseria gonorrhoeae, strain CDC19 (GCREF2012 015)): 0.5 mg/L (≈ 1.13 µM)
MIC (Neisseria gonorrhoeae, strain CDC20 (GCREF2012 017)): 1 mg/L (≈ 2.25 µM)
MIC (Neisseria gonorrhoeae, strain CDC21 (GCREF2012 018)): 1 mg/L (≈ 2.25 µM)
MIC (Neisseria gonorrhoeae, strain CDC22 (GCREF2012 019)): 1 mg/L (≈ 2.25 µM)
MIC (Neisseria gonorrhoeae, strain CDC23 (GCREF2012 020)): 1 mg/L (≈ 2.25 µM)
MIC (Neisseria gonorrhoeae, strain CDC24 (GCREF2012 021)): 1 mg/L (≈ 2.25 µM)
MIC (Neisseria gonorrhoeae, strain CDC25 (GCREF2012 022)): 1 mg/L (≈ 2.25 µM)
MIC (Neisseria gonorrhoeae, strain CDC26 (GCREF2012 023)): 0.5 mg/L (≈ 1.13 µM)
MIC (Neisseria gonorrhoeae, strain CDC27 (GCREF2012 024)): 1 mg/L (≈ 2.25 µM)
MIC (Neisseria gonorrhoeae, strain CDC28 (GCREF2012 025)): 1 mg/L (≈ 2.25 µM)
MIC (Neisseria gonorrhoeae, strain CDC29 (GCREF2012 026)): 1 mg/L (≈ 2.25 µM)
MIC (Neisseria gonorrhoeae, strain CDC30 (GCREF2012 027)): 1 mg/L (≈ 2.25 µM)
MIC (Neisseria gonorrhoeae, strain CDC31 (GCREF2012 028)): 2 mg/L (≈ 4.5 µM)
MIC (Neisseria gonorrhoeae, strain CDC32 (GCREF2012 029)): 0.5 mg/L (≈ 1.13 µM)
MIC (Neisseria gonorrhoeae, strain CDC33 (GCREF2012 030)): 0.5 mg/L (≈ 1.13 µM)
MIC (Neisseria gonorrhoeae, strain CDC34 (GCREF2012 031)): 1 mg/L (≈ 2.25 µM)
MIC (Neisseria gonorrhoeae, strain CDC35 (GCREF2012 032)): 2 mg/L (≈ 4.5 µM)
MIC (Neisseria gonorrhoeae, strain CDC36 (GCREF2012 033)): 1 mg/L (≈ 2.25 µM)
MIC (Neisseria gonorrhoeae, strain CDC37 (GCREF2012 034)): 1 mg/L (≈ 2.25 µM)
MIC (Neisseria gonorrhoeae, strain CDC38 (GCREF2012 035)): 1 mg/L (≈ 2.25 µM)
MIC (Neisseria gonorrhoeae, strain CDC39 (GCREF2012 036)): 1 mg/L (≈ 2.25 µM)
MIC (Neisseria gonorrhoeae, strain CDC40 (GCREF2012 037)): 1 mg/L (≈ 2.25 µM)
MIC (Neisseria gonorrhoeae, strain CDC41 (GCREF2012 038)): 1 mg/L (≈ 2.25 µM)
MIC (Neisseria gonorrhoeae, strain CDC42 (GCREF2012 039)): 2 mg/L (≈ 4.5 µM)
MIC (Neisseria gonorrhoeae, strain CDC43 (GCREF2012 040)): 2 mg/L (≈ 4.5 µM)
MIC (Neisseria gonorrhoeae, strain CDC45 (GCREF2012 042)): 2 mg/L (≈ 4.5 µM)
MIC (Neisseria gonorrhoeae, strain CDC46 (GCREF2012 043)): 1 mg/L (≈ 2.25 µM)
MIC (Neisseria gonorrhoeae, strain CDC47 (GCREF2012 044)): 1 mg/L (≈ 2.25 µM)
MIC (Neisseria gonorrhoeae, strain CDC48 (GCREF2012 046)): 1 mg/L (≈ 2.25 µM)
MIC (Neisseria gonorrhoeae, strain CDC49 (GCREF2012 047)): 1 mg/L (≈ 2.25 µM)
MIC (Neisseria gonorrhoeae, strain CDC50 (GCREF2012 048)): 1 mg/L (≈ 2.25 µM)
MIC (Neisseria gonorrhoeae, strain CDC51 (GCREF2012 049)): 1 mg/L (≈ 2.25 µM)
MIC (Neisseria gonorrhoeae, strain CDC52 (GCREF2012 050)): 1 mg/L (≈ 2.25 µM)
MIC (Neisseria gonorrhoeae, strain CDC53 (GCREF2012 051)): 1 mg/L (≈ 2.25 µM)
MIC (Neisseria gonorrhoeae, strain CDC54 (GCREF2012 052)): 1 mg/L (≈ 2.25 µM)
MIC (Neisseria gonorrhoeae, strain CDC55 (GCREF2013 001)): 1 mg/L (≈ 2.25 µM)
MIC (Neisseria gonorrhoeae, strain CDC56 (GCREF2013 002)): 1 mg/L (≈ 2.25 µM)
MIC (Neisseria gonorrhoeae, strain CDC57 (GCREF2013 003)): 0.5 mg/L (≈ 1.13 µM)
MIC (Neisseria gonorrhoeae, strain CDC58 (GCREF2013 004)): 1 mg/L (≈ 2.25 µM)
MIC (Neisseria gonorrhoeae, strain CDC59 (GCREF2013 044)): 16 mg/L (≈ 36 µM)
MIC (Neisseria gonorrhoeae, strain CDC60 (GCREF2013 005)): 1 mg/L (≈ 2.25 µM)
MIC (Neisseria gonorrhoeae, strain CDC61 (GCREF2013 006)): 1 mg/L (≈ 2.25 µM)
MIC (Neisseria gonorrhoeae, strain CDC62 (GCREF2013 007)): 0.5 mg/L (≈ 1.13 µM)
MIC (Neisseria gonorrhoeae, strain CDC63 (GCREF2013 008)): 0.063 mg/L (≈ 0.142 µM)
MIC (Neisseria gonorrhoeae, strain CDC64 (GCREF2013 009)): 1 mg/L (≈ 2.25 µM)
MIC (Neisseria gonorrhoeae, strain CDC65 (GCREF2013 010)): 0.5 mg/L (≈ 1.13 µM)
MIC (Neisseria gonorrhoeae, strain CDC66 (GCREF2013 011)): 0.5 mg/L (≈ 1.13 µM)
MIC (Neisseria gonorrhoeae, strain CDC67 (GCREF2013 014)): 1 mg/L (≈ 2.25 µM)
MIC (Neisseria gonorrhoeae, strain CDC68 (GCREF2013 016)): 1 mg/L (≈ 2.25 µM)
MIC (Neisseria gonorrhoeae, strain CDC69 (GCREF2013 017)): 1 mg/L (≈ 2.25 µM)
MIC (Neisseria gonorrhoeae, strain CDC70 (GCREF2013 018)): 1 mg/L (≈ 2.25 µM)
MIC (Neisseria gonorrhoeae, strain CDC71 (GCREF2013 019)): 1 mg/L (≈ 2.25 µM)
MIC (Neisseria gonorrhoeae, strain CDC72 (GCREF2013 020)): 1 mg/L (≈ 2.25 µM)
MIC (Neisseria gonorrhoeae, strain CDC73 (GCREF2013 021)): 1 mg/L (≈ 2.25 µM)
MIC (Neisseria gonorrhoeae, strain CDC74 (GCREF2013 022)): 1 mg/L (≈ 2.25 µM)
MIC (Neisseria gonorrhoeae, strain CDC75 (GCREF2013 023)): 1 mg/L (≈ 2.25 µM)
MIC (Neisseria gonorrhoeae, strain CDC76 (GCREF2013 024)): 1 mg/L (≈ 2.25 µM)
MIC (Neisseria gonorrhoeae, strain CDC77 (GCREF2013 025)): 1 mg/L (≈ 2.25 µM)
MIC (Neisseria gonorrhoeae, strain CDC78 (GCREF2013 026)): 1 mg/L (≈ 2.25 µM)
MIC (Neisseria gonorrhoeae, strain CDC79 (GCREF2013 027)): 1 mg/L (≈ 2.25 µM)
MIC (Neisseria gonorrhoeae, strain CDC80 (GCREF2013 028)): 1 mg/L (≈ 2.25 µM)
MIC (Neisseria gonorrhoeae, strain CDC81 (GCREF2013 029)): 1 mg/L (≈ 2.25 µM)
MIC (Neisseria gonorrhoeae, strain CDC82 (GCREF2013 031)): 0.5 mg/L (≈ 1.13 µM)
MIC (Neisseria gonorrhoeae, strain CDC83 (GCREF2013 032)): 0.5 mg/L (≈ 1.13 µM)
MIC (Neisseria gonorrhoeae, strain CDC84 (GCREF2013 033)): 0.5 mg/L (≈ 1.13 µM)
MIC (Neisseria gonorrhoeae, strain CDC86 (GCREF2013 035)): 0.25 mg/L (≈ 0.563 µM)
MIC (Neisseria gonorrhoeae, strain CDC87 (GCREF2013 036)): 1 mg/L (≈ 2.25 µM)
MIC (Neisseria gonorrhoeae, strain CDC88 (GCREF2013 037)): 0.5 mg/L (≈ 1.13 µM)
MIC (Neisseria gonorrhoeae, strain CDC89 (GCREF2013 038)): 1 mg/L (≈ 2.25 µM)
MIC (Neisseria gonorrhoeae, strain CDC90 (GCREF2013 039)): 1 mg/L (≈ 2.25 µM)
MIC (Neisseria gonorrhoeae, strain CDC91 (GCREF2013 040)): 1 mg/L (≈ 2.25 µM)
MIC (Neisseria gonorrhoeae, strain CDC92 (GCREF2013 041)): 1 mg/L (≈ 2.25 µM)
MIC (Neisseria gonorrhoeae, strain CDC93 (GCREF2013 042)): 1 mg/L (≈ 2.25 µM)
MIC (Neisseria gonorrhoeae, strain CDC94 (GCREF2013 043)): 0.5 mg/L (≈ 1.13 µM)
MIC (Neisseria gonorrhoeae, strain CDC95 (GCREF2013 045)): 1 mg/L (≈ 2.25 µM)
MIC (Neisseria gonorrhoeae, strain CDC96 (GCREF2013 046)): 0.5 mg/L (≈ 1.13 µM)
MIC (Neisseria gonorrhoeae, strain CDC97 (GCREF2013 047)): 1 mg/L (≈ 2.25 µM)
MIC (Neisseria gonorrhoeae, strain CDC98 (GCREF2013 048)): 0.5 mg/L (≈ 1.13 µM)
MIC (Neisseria gonorrhoeae, strain CDC99 (GCREF2013 012)): 0.5 mg/L (≈ 1.13 µM)
MIC (Neisseria gonorrhoeae, strain CDC100 (GCREF2013 015)): 1 mg/L (≈ 2.25 µM)
